Experimental data as given in patent US7084133B2, “Dicarba-closo-dodecaborane derivatives” (priority 2001, dated 2006).

Tested on: promyelocytic leukemia strain HL-60
Test: Test for induction of cell differentiation in HL-60 cells (NBT reducing ability), compound alone or with coexistence of VD3
Format: cell-based
Details: compound alone
Protocol: Cell differentiation-inducing action was examined for each of the compounds obtained in the examples alone or with the coexistence of 1×10^−8 M1α,25-dihydroxyvitamin D3 (VD3). According to the method described in Japanese Patent Unexamined Publication (Kokai) No. 61–76440, cell differentiation of promyelocytic leukemia strain HL-60 into granulocytic series was determined based on morphological change and measurement of ability to reduce nitroblue tetrazolium (NBT). The values in the table indicate ratios (%) of differentiated cells calculated from the NBT reducing ability, and the row represented by “VD3” indicates the results obtained by using vitamin D3.

C=C1/C(=C\C=C2/CCC[C@]3(C)[C@@H]([C@H](C)CCCC(C)(C)O)CC[C@@H]23)C[C@@H](O)C[C@@H]1O [VD3, 1α,25-dihydroxyvitamin D3]
ratios (%) of differentiated cells calculated from the NBT reducing ability (Log Concentration (M) −7): 75%
ratios (%) of differentiated cells calculated from the NBT reducing ability (Log Concentration (M) −8): 41%
ratios (%) of differentiated cells calculated from the NBT reducing ability (Log Concentration (M) −9): 7%
